These results are taken from US4254124A, “Antidepressant agent” (priority 1979, dated 1981).

One series deals with alpha-adrenergic. Kind of series: blood pressure response to 1-epinephrine (alpha-adrenergic blocking action), anesthetized dog. The format is in vivo.
The next series concerns dog. The series can be described thus: carotid arterial blood pressure in pentobarbital anesthetized dog. The series is classed as in vivo. The following applies: 1 and 10 mg./kg. intravenously.
Series [1] relates to mouse. The series can be described thus: Inhibition of pernicious preening in mice (anti-psychotic or analgetic). The format is in vivo. The conditions noted are these: oral.
From the text: mice (anti-psychotic or analgetic)^3
For series [2] the following is noted: U.S. Pat. No. 3,381,009; cited from earlier work.
The next series has as its system patients. The following applies: cited from earlier work.
Series [3] is described as follows: ALD50/ATD50 Mouse (lethal toxicity and first signs of pharmacologic activity). The conditions noted are these: mouse, in vivo, po.
From the text: (§1) ^4 Groups of 10 mice treated variously with geometrically increasing
(§2) doses of test compound with observations of lethal toxicity (ALD50)
(§3) and for first signs of pharmacologic activity (ATD50).
For series [4], the system named is mouse. The series can be described thus: reserpine-induced ptosis prevention (oral pretreatment). The series is classed as in vivo. The following applies: for ED50: Mus musculus, po, p.o. before reserpine 2.0 mg./kg. i.v., prevention in 50% of the animals.
Series [5] relates to mouse. The series can be described thus: spontaneous motor activity. The format is in vivo. An excerpt: More particularly, in the measurement of spontaneous motor activity in the mouse using the device and method described by Kissel in U.S. Pat. No. 3,100,473 patented Aug.
The test system of series [6] is mouse. Kind of series: Mouse, tail clip (analgetic). The format is in vivo. The conditions noted are these: oral. An excerpt:
Mouse, tail clip (analgetic)^1
^1 Bianchi, et al., Brit. J. of Pharmacology 9, 280 (1954).

Series [7] in a line: animal tests, antidepressant activity (general statement). The series is classed as in vivo.
For series [8], the system named is mouse. The series can be described thus: Reduction of phenylquinone writhing in mice (analgetic). The format is in vivo. The conditions noted are these: oral. The source says:
Reduction of phenylquinone writhing
^2 Hendershot, et al., J. Pharmacol. & Exptl. Ther. 125, 237 (1959).

For series [9], the system named is mouse. Kind of series: ALD50/ATD50 Mouse (lethal toxicity and first signs of pharmacologic activity).
From the text: as §1, §2, §3
A short description of the next series: in vivo. The following applies: mouse, po.
Series [10] is described as follows: animal tests, propensity for adverse reactions (general statement). The format is in vivo. The conditions noted are these: central nervous system depression, hypotensive action, and others; vs trazodone. As for the experimental part:
More particularly, in the measurement of spontaneous motor activity in the mouse using the device and method described by Kissel in U.S. Pat. No. 3,100,473 patented Aug. […] In contrast, trazodone at a dose of 15.3 mg./kg. caused a 30% reduction in spontaneous motor activity. […] Other animal test results in which MJ 12762 has been compared to trazodone are arranged in the following table.

The mark [11] stands for this setting: vs imipramine, Fabre et al. 1979.

From the text for in vivo: as §1, §2, §3

`O=c1n(CCCN2CCN(c3cccc(Cl)c3)CC2)nc2ccccn12` [trazodone, 2-[3-[4-(3-chlorophenyl)-1-piperazinyl]propyl]-1,2,4-triazolo[4,3-a]pyridin-3(2H)-one, reference compound]: the “effect on the blood pressure response to 1-epinephrine bitartrate (alpha-adrenergic blocking action)” value in the series on alpha-adrenergic (10 mg./kg. intravenously) is “blocked the effect of 1-epinephrine bitartrate”. Moreover, the “effect on blood pressure” value in the series with dog was “depressor response”. Moreover, the ED50 (usually the midpoint of the dose-response relation) with mouse [1] (Mus musculus) is 43 mg/kg. Further, the “pharmacological action in various animal tests” value in series [2] was “tranquilizing action, hypotensive action, and analgesic action”. Besides, the “adverse reactions sometimes observed in patients” value in the series on patients (endogenous or neurotic depression) was “hypotension,fatigue, drowsiness, and nasal or sinus congestion”. In the series with patients (setting [11]), the “antidepressant effectiveness in clinical use” value is on record as “equivalent in effectiveness to imipramine” and the “side effects in clinical use” value is “fewer side effects”. In addition, the TD50 – broadly, the dose at which the toxic effect under study appears in half of the subjects – in [3] is 2 to 4 mg/kg. In addition, in the series with mouse [4], the ED50 came out at 36 mg/kg. In the series with mouse [5] (15.3 mg./kg.), the “reduction in spontaneous motor activity” value is 30%.

For `O=c1n(CCCN2CCN(c3cccc(C(F)(F)F)c3)CC2)nc2ccccn12` [MJ 12762, 2-[3-[4-[3-(Trifluoromethyl)phenyl]-1-piperazinyl]propyl]-1,2,4-triazolo[4,3-a]pyridin-3(2H)-one], in the series on alpha-adrenergic (intravenous doses of 1 and 10 mg./kg.), the “effect on the blood pressure response to 1-epinephrine (alpha-adrenergic blocking action)” value is reported as “lack of alpha-adrenergic blocking action”. The “effect on blood pressure” value in the series with dog was “without effect on blood pressure”. Also, the “inhibition of pernicious preening, activity in words” value in the series on mouse [1] was “Inactive”. The “inhibition of pernicious preening, animals responding” value with mouse [1] (at 31 mg./kg.) was 2 of 10. The figures for the ED50 in the series with mouse [6], in the series with mouse [8] and with mouse [4] were 94 mg/kg, 6.1 mg/kg and 14 mg/kg, respectively. The “antidepressant activity relative to trazodone” value in series [7] is recorded as “comparable in antidepressant activity to trazodone”. In series [3], this compound returned a TD50 of 8 to 15.7 mg/kg. In addition, the “acute toxicity relative to trazodone” value in the series with mouse [9] (mouse) was “somewhat greater than that of trazodone”. Further, the “propensity for signs of overt pharmacologic activity unrelated to utility” value in the series on mouse [9] (vs trazodone) is given as “reduced as compared to trazodone”. For the same compound, the LD50 (commonly the dose at which mortality reaches 50%) in “in vivo” was in the range of 250 to 500 mg/kg. Further, in the series on mouse [4] (p.o., vs trazodone), the “potency relative to trazodone, reserpine ptosis” value was “two to three times more potent than trazodone”. Moreover, the “effect on spontaneous motor activity” value in the series on mouse [5] (20, 40 and 80 mg. per kg. orally) is listed as “neither stimulation nor depression”. In series [10], the “propensity for adverse reactions” value was “significantly reduced propensity for adverse reactions”.
